Test results published in patent US7741020B2, “Methods for detecting Lp-PLA2 activity and inhibition of Lp-PLA2 activity” (Glaxo Group Limited, priority 2004, dated 2010).
“And” between values parts separate entries of the source, which are not always exact repeats. Equal values may be shown once.

Legend:
Lp-PLA2 [1] = molecular target: T1, Lp-PLA2 (Homo sapiens, UniProt Q13093); experiment: Modified drug-sensitive colorimetric assay, plasma; type: biochemical; conditions: plasma of individual human subjects
T1 sequence (Q13093 22-441): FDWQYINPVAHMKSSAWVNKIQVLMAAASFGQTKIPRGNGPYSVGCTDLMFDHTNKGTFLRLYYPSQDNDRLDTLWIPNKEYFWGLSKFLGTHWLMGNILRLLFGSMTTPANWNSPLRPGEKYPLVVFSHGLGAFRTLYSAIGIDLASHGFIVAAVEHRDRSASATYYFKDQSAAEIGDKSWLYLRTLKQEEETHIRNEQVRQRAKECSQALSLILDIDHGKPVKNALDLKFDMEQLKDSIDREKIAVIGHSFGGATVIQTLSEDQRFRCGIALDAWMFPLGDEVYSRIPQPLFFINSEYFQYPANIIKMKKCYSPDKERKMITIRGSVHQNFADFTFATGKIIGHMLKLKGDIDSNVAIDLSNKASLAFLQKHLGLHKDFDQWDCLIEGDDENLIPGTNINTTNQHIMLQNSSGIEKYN
From the text: Assay Procedure • 1. […] Use duplicates for each sample. • 4.
Pre-dose plasma samples for each subject on day 0 of the study were also available.

Lp-PLA2 [2] = molecular target: T1, Lp-PLA2; experiment: Auto PAF AH assay (Azwell kit, Olympus Au640 analyzer); type: biochemical; conditions: 50 mg, plasma of individual human subjects
Protocol: The Auto PAF AH assay kit, manufactured by Azwell (Osaka, Japan), is commercially available in the United States through Karlan Research Products Corporation (Santa Rosa, Calif.).
Prepare the following reagents: • R1: Use this buffer solution as supplied in Azwell Auto PAF AH assay kit. Store at 4° C. Protect from light. • R2: Prepare the R2 working solution by mixing R2A and R2B (supplied in Azwell Auto PAF AH assay kit) in the proportion of 19:1, Store at 4° C. Protect from light. • 3. […] Briefly centrifuge to spin down fibrin clots/particles in the plasma. • 4. Place Sarstedt tubes containing plasma samples onto sample tubes that fit the instrument. Run plasma samples through the Au640 analyzer. After choosing the PAF AH assay program, the analytical procedure described below is performed automatically: • Test sample (2 μL)+R1 (240 μL), 37° C., 5 minutes [0-5 minutes] • Add R2 (80 μL), 37° C., 5 minutes [5-10 minutes] • Measure the absorbance at 410 nm and 480 nm [6-8 minutes] • Calculate PAF AH activity (IU/L) • 5.

COCCN1CCC(N(Cc2ccc(-c3ccc(C(F)(F)F)cc3)cc2)C(=O)Cn2c(SCc3cccc(F)c3F)cc(=O)c3ccccc32)CC1 [Formula I]
% Inhibition Drug-Sensitive Colorimetric (Lp-PLA2 [1]; 50 mg, 0.5 hr after dosing): 16.91% and 18.69% and 26.95% | Lp-PLA2 Activity Drug-Sensitive Colorimetric (Lp-PLA2 [1]; 50 mg, 0.5 hr after dosing): 89.99 nmol/min/mL and 69.79 nmol/min/mL and 81.70 nmol/min/mL and 32.96 nmol/min/mL and 141.14 nmol/min/mL | Lp-PLA2 Activity Drug-Sensitive Colorimetric (Lp-PLA2 [1]; 50 mg, 1 hr after dosing): 17.15 nmol/min/mL and 39.10 nmol/min/mL and 24.96 nmol/min/mL and 22.46 nmol/min/mL and 37.07 nmol/min/mL | % Inhibition Drug-Sensitive Colorimetric (Lp-PLA2 [1]; 50 mg, 4 hr after dosing): 85.71% | Lp-PLA2 Activity Drug-Sensitive Colorimetric (Lp-PLA2 [1]; 50 mg, 5 hr after dosing): 20.74 nmol/min/mL and 31.77 nmol/min/mL and 16.58 nmol/min/mL and 15.83 nmol/min/mL and 18.35 nmol/min/mL | Lp-PLA2 Activity Drug-Sensitive Colorimetric (Lp-PLA2 [1]; 50 mg, 6 hr after dosing): 23.71 nmol/min/mL and 66.08 nmol/min/mL and 21.01 nmol/min/mL and 25.84 nmol/min/mL and 25.12 nmol/min/mL | % Inhibition Drug-Sensitive Colorimetric (Lp-PLA2 [1]; 50 mg, 12 hr after dosing): 60.73% and 36.04% and 55.61% | Lp-PLA2 Activity Drug-Sensitive Colorimetric (Lp-PLA2 [1]; 50 mg, 12 hr after dosing): 34.83 nmol/min/mL and 76.84 nmol/min/mL and 111.00 nmol/min/mL and 53.72 nmol/min/mL and 44.60 nmol/min/mL | % Inhibition Drug-Sensitive Colorimetric (Lp-PLA2 [1]; 120 mg, 0.5 hr after dosing): 88.89% and 85.22% and 45.29% and 41.39% | Lp-PLA2 Activity Drug-Sensitive Colorimetric (Lp-PLA2 [1]; 120 mg, 0.5 hr after dosing): 31.08 nmol/min/mL and 20.14 nmol/min/mL and 19.87 nmol/min/mL and 63.95 nmol/min/mL and 64.40 nmol/min/mL | % Inhibition Drug-Sensitive Colorimetric (Lp-PLA2 [1]; 120 mg, 1 hr after dosing): 88.85% | Lp-PLA2 Activity Drug-Sensitive Colorimetric (Lp-PLA2 [1]; 120 mg, 1 hr after dosing): 19.69 nmol/min/mL and 23.29 nmol/min/mL and 14.99 nmol/min/mL and 30.22 nmol/min/mL and 18.74 nmol/min/mL | Lp-PLA2 Activity Drug-Sensitive Colorimetric (Lp-PLA2 [1]; 120 mg, 2 hr after dosing): 19.69 nmol/min/mL and 19.54 nmol/min/mL and 12.22 nmol/min/mL and 29.51 nmol/min/mL and 10.11 nmol/min/mL | Lp-PLA2 Activity Drug-Sensitive Colorimetric (Lp-PLA2 [1]; 120 mg, 3 hr after dosing): 13.17 nmol/min/mL and 20.61 nmol/min/mL and 15.08 nmol/min/mL and 30.49 nmol/min/mL and 11.51 nmol/min/mL | Lp-PLA2 Activity Drug-Sensitive Colorimetric (Lp-PLA2 [1]; 120 mg, 4 hr after dosing): 7.30 nmol/min/mL and 21.27 nmol/min/mL and 16.18 nmol/min/mL and 29.42 nmol/min/mL and 11.21 nmol/min/mL | Lp-PLA2 Activity Drug-Sensitive Colorimetric (Lp-PLA2 [1]; 120 mg, 5 hr after dosing): 22.94 nmol/min/mL and 21.36 nmol/min/mL and 18.14 nmol/min/mL and 35.46 nmol/min/mL and 12.22 nmol/min/mL | Lp-PLA2 Activity Drug-Sensitive Colorimetric (Lp-PLA2 [1]; 120 mg, 6 hr after dosing): 20.65 nmol/min/mL and 21.39 nmol/min/mL and 18.74 nmol/min/mL and 39.29 nmol/min/mL and 17.01 nmol/min/mL | Lp-PLA2 Activity Drug-Sensitive Colorimetric (Lp-PLA2 [1]; 120 mg, 9 hr after dosing): 27.16 nmol/min/mL and 27.87 nmol/min/mL and 26.18 nmol/min/mL and 50.81 nmol/min/mL and 21.03 nmol/min/mL | % Inhibition Auto PAF AH (Lp-PLA2 [2]; 0.5 hr after dosing): 10.84% and 0.65% and −6.65% and 10.66% and 8.03% | Lp-PLA2 Activity Auto PAF AH (Lp-PLA2 [2]; 0.5 hr after dosing): 456.50 nmol/min/mL and 308.00 nmol/min/mL and 393.00 nmol/min/mL and 272.50 nmol/min/mL and 647.00 nmol/min/mL | % Inhibition Auto PAF AH (Lp-PLA2 [2]; 1 hr after dosing): 11.15% and 14.00% and 19.04% | Lp-PLA2 Activity Auto PAF AH (Lp-PLA2 [2]; 1 hr after dosing): 271.00 nmol/min/mL and 605.00 nmol/min/mL and 242.00 nmol/min/mL and 340.50 nmol/min/mL | % Inhibition Auto PAF AH (Lp-PLA2 [2]; 2 hr after dosing): 10.98% and 20.47% and 9.03% | Lp-PLA2 Activity Auto PAF AH (Lp-PLA2 [2]; 2 hr after dosing): 271.50 nmol/min/mL and 559.50 nmol/min/mL and 282.00 nmol/min/mL and 348.00 nmol/min/mL | Lp-PLA2 Activity Auto PAF AH (Lp-PLA2 [2]; 3 hr after dosing): 277.50 nmol/min/mL and 602.50 nmol/min/mL and 435.00 nmol/min/mL and 287.50 nmol/min/mL and 348.00 nmol/min/mL | % Inhibition Auto PAF AH (Lp-PLA2 [2]; 4 hr after dosing): 15.90% and 10.52% and 0.32% and 8.14% | Lp-PLA2 Activity Auto PAF AH (Lp-PLA2 [2]; 4 hr after dosing): 256.50 nmol/min/mL and 629.50 nmol/min/mL and 409.00 nmol/min/mL and 309.00 nmol/min/mL and 338.50 nmol/min/mL | % Inhibition Auto PAF AH (Lp-PLA2 [2]; 5 hr after dosing): 10.33% and 7.39% and 24.80% and 9.84% and 8.68% | Lp-PLA2 Activity Auto PAF AH (Lp-PLA2 [2]; 5 hr after dosing): 273.50 nmol/min/mL and 651.50 nmol/min/mL and 385.00 nmol/min/mL and 279.50 nmol/min/mL and 336.50 nmol/min/mL | % Inhibition Auto PAF AH (Lp-PLA2 [2]; 6 hr after dosing): 10.33% and 8.74% and 24.12% and 11.80% | Lp-PLA2 Activity Auto PAF AH (Lp-PLA2 [2]; 6 hr after dosing): 273.50 nmol/min/mL and 642.00 nmol/min/mL and 388.50 nmol/min/mL and 306.50 nmol/min/mL and 325.00 nmol/min/mL | % Inhibition Auto PAF AH (Lp-PLA2 [2]; 9 hr after dosing): 6.23% and 18.76% and 12.99% and 6.61% and 15.33%
